Activity calls are given as the source filed them. The calls are words filed in the database; no cut-off is given here.
Experiments:
Thoracic aorta [1] = test: Anti-atherosclerosis activity in Sprague-Dawley rat thoracic aortic vascular ring endothelial injury model assessed as reduction in vascular endothelial proliferation after 13 days by hematoxylin and eosin staining based assay; type: functional, tissue-based
RAW264.7 = test: Anti-inflammatory activity in mouse RAW264.7 cells assessed as inhibition of LPS/IFN-induced NO production at 10 to 20 uM measured 48 hrs post LPS/IFN challenge by Griess assay; type: functional, cell-based
A7R5 [2] = test: Antiproliferative activity against rat A7r5 cells at 100 uM after 24 hrs by MTT assay; type: functional, cell-based
Thoracic aorta [3] = test: Anti-atherosclerosis activity in Sprague-Dawley rat thoracic aortic vascular ring endothelial injury model assessed as appearance of smooth vascular endothelial surface after 13 days by hematoxylin and eosin staining based assay; type: functional, tissue-based
Thoracic aorta [4] = test: Anti-atherosclerosis activity in Sprague-Dawley rat thoracic aortic vascular ring endothelial injury model assessed as decrease in CRP level at 25 uM by ELISA; type: functional, tissue-based
A7R5 [5] = test: Antiproliferative activity against rat A7r5 cells at 10 uM after 24 hrs by MTT assay; type: functional, cell-based
Thoracic aorta [6] = test: Anti-atherosclerosis activity in Sprague-Dawley rat thoracic aortic vascular ring endothelial injury model assessed as decrease in CRP level at 50 uM by ELISA; type: functional, tissue-based
A7R5 [7] = test: Antiproliferative activity against rat A7r5 cells at 50 uM after 24 hrs by MTT assay; type: functional, cell-based
Thoracic aorta [8] = test: Anti-atherosclerosis activity in Sprague-Dawley rat thoracic aortic vascular ring endothelial injury model assessed as decrease in VEGF level at 50 uM by ELISA; type: functional, tissue-based
Thoracic aorta [9] = test: Anti-atherosclerosis activity in Sprague-Dawley rat thoracic aortic vascular ring endothelial injury model assessed as decrease in JNK2 level at 50 uM by ELISA; type: functional, tissue-based
Thoracic aorta [10] = test: Anti-atherosclerosis activity in Sprague-Dawley rat thoracic aortic vascular ring assessed as restoration of injured vessel after 13 days by hematoxylin and eosin staining based assay; type: functional, tissue-based
Thoracic aorta [11] = test: Anti-atherosclerosis activity in Sprague-Dawley rat thoracic aortic vascular ring endothelial injury model assessed as decrease in p38 level at 25 to 50 uM by ELISA; type: functional, tissue-based
Thoracic aorta [12] = test: Anti-atherosclerosis activity in Sprague-Dawley rat thoracic aortic vascular ring endothelial injury model assessed as decrease in VEGF level at 25 uM by ELISA; type: functional, tissue-based
Thoracic aorta [13] = test: Anti-atherosclerosis activity in Sprague-Dawley rat thoracic aortic vascular ring endothelial injury model assessed as decrease in CRP level by ELISA; type: functional, tissue-based
Thoracic aorta [14] = test: Anti-atherosclerosis activity in Sprague-Dawley rat thoracic aortic vascular ring endothelial injury model assessed as decrease in JNK2 level at 25 uM by ELISA; type: functional, tissue-based

O=c1cc(-c2ccc(O)c(O)c2)oc2cc(O[C@@H]3O[C@H](CO)[C@@H](O)[C@H](O)[C@H]3O)cc(O)c12
Activity (Thoracic aorta [1]): inactive | inhibition (RAW264.7): Active | Activity (A7R5 [2]): inactive | Activity (Thoracic aorta [3]): Active | Activity (Thoracic aorta [4]): Active | Activity (A7R5 [5]): inactive | Activity (Thoracic aorta [6]): Active | Activity (A7R5 [7]): Active | Activity (Thoracic aorta [8]): Active

O=c1c(O[C@@H]2O[C@H](CO)[C@@H](O)[C@H](O)[C@H]2O)c(-c2ccc(O)cc2)oc2cc(O)cc(O)c12
Activity (Thoracic aorta [1]): Active | inhibition (RAW264.7): Active | Activity (A7R5 [2]): inactive | Activity (Thoracic aorta [3]): Active | Activity (Thoracic aorta [4]): Active | Activity (A7R5 [5]): inactive | Activity (Thoracic aorta [6]): Active | Activity (A7R5 [7]): Active | Activity (Thoracic aorta [8]): Active | Activity (Thoracic aorta [9]): Active | Activity (Thoracic aorta [10]): Active

O=C1C[C@@H](c2ccc(O)c(O)c2)Oc2cc(O)cc(O)c21
Activity (Thoracic aorta [1]): inactive | inhibition (RAW264.7): Active | Activity (Thoracic aorta [11]): Active | Activity (A7R5 [2]): inactive | Activity (Thoracic aorta [3]): Active | Activity (Thoracic aorta [4]): Active | Activity (A7R5 [5]): inactive | Activity (Thoracic aorta [6]): Active | Activity (A7R5 [7]): Active | Activity (Thoracic aorta [8]): Active | Activity (Thoracic aorta [9]): Active

C[C@@H]1O[C@@H](O[C@H]2[C@H](Oc3cc(O)c4c(c3)O[C@H](c3ccc(O)cc3)CC4=O)O[C@H](CO)[C@@H](O)[C@@H]2O)[C@H](O)[C@H](O)[C@H]1O
Activity (Thoracic aorta [1]): inactive | inhibition (RAW264.7): Active | Activity (Thoracic aorta [11]): Active | Activity (A7R5 [2]): inactive | Activity (Thoracic aorta [3]): Active | Activity (A7R5 [5]): inactive | Activity (Thoracic aorta [6]): Active | Activity (A7R5 [7]): inactive | Activity (Thoracic aorta [8]): Active | Activity (Thoracic aorta [9]): Active

O=c1cc(-c2ccc(O)c(O)c2)oc2cc(O)cc(O)c12
Activity (Thoracic aorta [1]): inactive | Activity (Thoracic aorta [12]): Active | inhibition (RAW264.7): Active | Activity (A7R5 [2]): inactive | Activity (Thoracic aorta [3]): Active | Activity (Thoracic aorta [4]): Active | Activity (A7R5 [5]): inactive | Activity (Thoracic aorta [6]): Active | Activity (A7R5 [7]): inactive | Activity (Thoracic aorta [8]): Active

C[C@@H]1O[C@@H](OC[C@H]2O[C@@H](Oc3cc(O)c4c(c3)O[C@H](c3ccc(O)cc3)CC4=O)[C@H](O)[C@@H](O)[C@@H]2O)[C@H](O)[C@H](O)[C@H]1O
Activity (Thoracic aorta [1]): inactive | inhibition (RAW264.7): Active | Activity (Thoracic aorta [11]): Active | Activity (A7R5 [2]): inactive | Activity (Thoracic aorta [3]): Active | Activity (A7R5 [5]): inactive | Activity (Thoracic aorta [6]): Active | Activity (A7R5 [7]): inactive | Activity (Thoracic aorta [8]): Active

O=c1c(O)c(-c2ccc(O)cc2)oc2cc(O)cc(O)c12
Activity (Thoracic aorta [13]): Dose-dependent effect | Activity (Thoracic aorta [1]): inactive | Activity (Thoracic aorta [12]): Active | inhibition (RAW264.7): Active | Activity (A7R5 [2]): inactive | Activity (Thoracic aorta [3]): Active | Activity (Thoracic aorta [4]): Active | Activity (A7R5 [5]): inactive | Activity (Thoracic aorta [6]): Active | Activity (A7R5 [7]): Active | Activity (Thoracic aorta [14]): Active | Activity (Thoracic aorta [8]): Active | Activity (Thoracic aorta [9]): Active

Source: ChEMBL document CHEMBL4020758, “Anti-atherosclerotic activities of flavonoids from the flowers of Helichrysum arenarium L. MOENCH through the pathway of anti-inflammation” (Bioorg Med Chem Lett, 2017)
